Biological target: T1, BTK (Homo sapiens, UniProt Q06187)
T1 construct: endogenous in cells; host or cells: TMD-8 cells
Experiment: BTK degradation in TMD-8 cells, HTRF assay after 6 h treatment
Type: cell-based
Conditions: for DC50: IC50 (DC50) of BTK degradation; for Dmax: TMD8, maximum percentage of inhibition (degradation)
Procedure: TMD-8 cells are treated with compounds diluted in 0.2% DMSO, dilution is done according to the following protocol: (1) make 500× stock solution in DMSO from 1 mM by 6-fold dilution, total 8 doses were included; (2) make 2× solution in cell culture medium by transferring 0.5 μl 500× stock solution into 125 μl medium; (3) 15 μl of 2× solution is added to cells and incubate for 6 h.
After 6 h treatment, add 10 μl 4×lysis buffer to each well; seal the plate and incubate 30 min at room temperature on a plate shaker; Once the cells are lysed, 16 μL of cell lysate are transferred to a PE 384-well HTRF detection plate; 4 μL of pre-mixed HTRF antibodies are added to each well; Cover the plate with a plate sealer, spin 1000 rpm for 1 min, Incubate overnight at room temperature; Read on BMG PheraStar with HTRF protocol (337 nm-665 nm-620 nm).
The IC50 (DC50) value of a compound can be obtained by fitting the following equation
Y=Bottom+(TOP−Bottom)/(1+((IC50/X)^hillslope))
Wherein, X and Y are known values, and IC50, Hillslope, Top and Bottom are the parameters obtained by fitting with software. Y is the inhibition percentage (calculated from the equation), X is the concentration of the compound; IC50 is the concentration of the compound when the 50% inhibition is reached. The smaller the IC50 value is, the stronger the inhibitory ability of the compound is. Vice versa, the higher the IC50 value is, the weaker the ability the inhibitory ability of the compound is; Hillslope represents the slope of the fitted curve, generally around 1*; Bottom represents the minimum value of the curve obtained by data fitting, which is generally 0%±20%; Top represents the maximum value of the curve obtained by data fitting, which is generally 100%±20%. The experimental data were fitted by calculating and analyzing with Dotmatics data analysis software.

T1 sequence (Q06187 whole entry): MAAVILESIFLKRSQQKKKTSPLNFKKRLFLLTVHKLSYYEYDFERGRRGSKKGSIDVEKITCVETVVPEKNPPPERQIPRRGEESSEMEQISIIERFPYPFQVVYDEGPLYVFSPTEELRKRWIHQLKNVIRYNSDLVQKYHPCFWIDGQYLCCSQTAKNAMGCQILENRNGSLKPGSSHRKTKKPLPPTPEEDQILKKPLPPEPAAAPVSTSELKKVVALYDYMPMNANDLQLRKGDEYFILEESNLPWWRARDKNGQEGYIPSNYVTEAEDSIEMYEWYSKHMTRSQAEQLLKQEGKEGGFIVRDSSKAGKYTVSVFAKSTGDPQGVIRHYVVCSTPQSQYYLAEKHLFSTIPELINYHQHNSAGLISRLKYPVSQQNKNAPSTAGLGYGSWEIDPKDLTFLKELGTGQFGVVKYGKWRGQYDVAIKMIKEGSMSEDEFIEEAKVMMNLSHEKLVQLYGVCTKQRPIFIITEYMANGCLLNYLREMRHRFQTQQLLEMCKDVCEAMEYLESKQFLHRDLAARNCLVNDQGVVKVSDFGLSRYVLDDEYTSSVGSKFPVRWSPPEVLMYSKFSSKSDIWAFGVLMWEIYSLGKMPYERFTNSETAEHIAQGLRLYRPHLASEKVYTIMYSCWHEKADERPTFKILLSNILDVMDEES

SMILES	DC50	Dmax
CC(C)(C)c1noc(C(=O)NCc2ccc(-c3n[nH]c4ncc(-c5ccc(C6CCN(CCc7ccc(N8CCC(=O)NC8=O)cc7)CC6)cc5)cc34)cc2F)n1 [Example 13, 3-(tert-butyl)-N-(4-(5-(4-(1-(4-(2,4-dioxotetrahydropyrimidin-1(2H)-yl)phenethyl)piperidin-4-yl)phenyl)-1H-pyrazolo[3,4-b]pyridin-3-yl)-2-fluorobenzyl)-1,2,4-oxadiazole-5-carboxamide]	25.7 nM	93%
Cc1cc(-c2n[nH]c3ncc(-c4ccc(N5CCC(COc6ccc(C7CCC(=O)NC7=O)cc6)CC5)cc4)cc23)ccc1[C@@H](C)NC(=O)c1noc(C(C)(C)C)n1 (stereo partly drawn) [Example 183, 5-(tert-butyl)-N-((1R)-1-(4-(5-(4-(4-((4-(2,6-dioxopiperidin-3-yl)phenoxy)methyl)piperidin-1-yl)phenyl)-1H-pyrazolo[3,4-b]pyridin-3-yl)-2-methylphenyl)ethyl)-1,2,4-oxadiazole-3-carboxamide]	19.8 nM	
Cc1cc(-c2n[nH]c3ncc(-c4ccc(N5CCC(COc6ccc(N7CCC(=O)NC7=O)cc6)CC5)cc4)cc23)ccc1[C@@H](C)NC(=O)c1noc(C(C)(C)C)n1 [Example 187, (R)-5-(tert-butyl)-N-(1-(4-(5-(4-(4-((4-(2,4-dioxotetrahydropyrimidin-1(2H)-yl)phenoxy)methyl)piperidin-1-yl)phenyl)-1H-pyrazolo[3,4-b]pyridin-3-yl)-2-methylphenyl)ethyl)-1,2,4-oxadiazole-3-carboxamide]	9.56 nM	
Cc1cc(-c2n[nH]c3ncc(-c4ccc(N5CCN(CC6CCN(c7ccc(N8CCC(=O)NC8=O)cc7)CC6)CC5)cc4)cc23)ccc1CNC(=O)c1cn(C(C)(C)C)nn1 [Example 31, 1-(tert-butyl)-N-(4-(5-(4-(4-((1-(4-(2,4-dioxotetrahydropyrimidin-1(2H)-yl)phenyl)piperidin-4-yl)methyl)piperazin-1-yl)phenyl)-1H-pyrazolo[3,4-b]pyridin-3-yl)-2-methylbenzyl)-1H-1,2,3-triazole-4-carboxamide]	21.8 nM	97.4%
Cc1cc(-c2n[nH]c3ncc(-c4ccc(CCN5CCC(c6ccc([C@@H]7CCC(=O)NC7=O)cc6)CC5)cc4)cc23)ccc1CNC(=O)c1nc(C(C)(C)C)no1 [Example 88, (S)-3-(tert-butyl)-N-(4-(5-(4-(2-(4-(4-(2,6-dioxopiperidin-3-yl)phenyl)piperidin-1-yl)ethyl)phenyl)-1H-pyrazolo[3,4-b]pyridin-3-yl)-2-methylbenzyl)-1,2,4-oxadiazole-5-carboxamide]	9.41 nM	
Cc1cc(-c2n[nH]c3ncc(-c4ccc(N5CCN(CCc6ccc(C7CCC(=O)NC7=O)cc6)CC5)cc4)cc23)ccc1[C@@H](C)NC(=O)c1cn(C(C)(C)C)nn1 (stereo partly drawn) [Example 125, 1-(tert-butyl)-N-((1R)-1-(4-(5-(4-(4-(4-(2,6-dioxopiperidin-3-yl)phenethyl)piperazin-1-yl)phenyl)-1H-pyrazolo[3,4-b]pyridin-3-yl)-2-methylphenyl)ethyl)-1H-1,2,3-triazole-4-carboxamide]	15.2 nM	
Cc1cc(-c2n[nH]c3nc(-c4ccc(N5CCN(CC6CCN(c7ccc(N8CCC(=O)NC8=O)cc7)CC6)CC5)cc4)ccc23)ccc1[C@@H](C)NC(=O)c1noc(C(C)(C)C)n1 [Example 157, (R)-5-(tert-butyl)-N-(1-(4-(6-(4-(4-((1-(4-(2,4-dioxotetrahydropyrimidin-1(2H)-yl)phenyl)piperidin-4-yl)methyl)piperazin-1-yl)phenyl)-1H-pyrazolo[3,4-b]pyridin-3-yl)-2-methylphenyl)ethyl)-1,2,4-oxadiazole-3-carboxamide]	62.1 nM	
Cc1cc(-c2n[nH]c3ncc(-c4ccc(C5CCN(CCc6ccc(C7CCC(=O)NC7=O)c7ccccc67)CC5)cc4)cc23)ccc1CNC(=O)c1nc(C(C)(C)C)no1 (centres unmarked) [Example 25, 3-(tert-butyl)-N-(4-(5-(4-(1-(2-(4-(2,6-dioxopiperidin-3-yl)naphthalen-1-yl)ethyl)piperidin-4-yl)phenyl)-1H-pyrazolo[3,4-b]pyridin-3-yl)-2-methylbenzyl)-1,2,4-oxadiazole-5-carboxamide]	8.16 nM	96.7%

Molecules with a lower DC50, results first:

DC50	Dmax	SMILES
3.39 nM	95.6%	Cc1cc(-c2n[nH]c3ncc(-c4ccc(N5CCN(CCc6ccc(C7CCC(=O)NC7=O)c(F)c6)CC5)cc4)cc23)ccc1[C@@H](C)NC(=O)c1nc(C(C)(C)C)no1 (stereo partly drawn) [Example 34, 3-(tert-butyl)-N-((1R)-1-(4-(5-(4-(4-(4-(2,6-dioxopiperidin-3-yl)-3-fluorophenethyl)piperazin-1-yl)phenyl)-1H-pyrazolo[3,4-b]pyridin-3-yl)-2-methylphenyl)ethyl)-1,2,4-oxadiazole-5-carboxamide]
2.52 nM	93.4%	Cc1cc(-c2n[nH]c3ncc(-c4ccc(N5CCN(CC6CCN(c7ccc(N8CCC(=O)NC8=O)cc7)CC6)CC5)cc4)cc23)ccc1[C@@H](C)NC(=O)c1noc(C(C)(C)C)n1 [Example 37, (R)-5-(tert-butyl)-N-(1-(4-(5-(4-(4-((1-(4-(2,4-dioxotetrahydropyrimidin-1(2H)-yl)phenyl)piperidin-4-yl)methyl)piperazin-1-yl)phenyl)-1H-pyrazolo[3,4-b]pyridin-3-yl)-2-methylphenyl)ethyl)-1,2,4-oxadiazole-3-carboxamide]
4.87 nM		Cc1cc(-c2n[nH]c3ncc(-c4ccc(N5CCN(CC6CCN(c7ccc(N8CCC(=O)NC8=O)c(Cl)c7)CC6)CC5)cc4)cc23)ccc1[C@@H](C)NC(=O)c1noc(C(C)(C)C)n1 [Example 115, (R)-5-(tert-butyl)-N-(1-(4-(5-(4-(4-((1-(3-chloro-4-(2,4-dioxotetrahydropyrimidin-1(2H)-yl)phenyl)piperidin-4-yl)methyl)piperazin-1-yl)phenyl)-1H-pyrazolo[3,4-b]pyridin-3-yl)-2-methylphenyl)ethyl)-1,2,4-oxadiazole-3-carboxamide]
6.15 nM		Cc1cc(-c2n[nH]c3ncc(-c4ccc(N5CCN(CCCOc6ccc(NC7CCC(=O)NC7=O)c(F)c6)CC5)cc4)cc23)ccc1[C@@H](C)NC(=O)c1noc(C(C)(C)C)n1 (stereo partly drawn) [Example 142, 5-(tert-butyl)-N-((1R)-1-(4-(5-(4-(4-(3-(4-((2,6-dioxopiperidin-3-yl)amino)-3-fluorophenoxy)propyl)piperazin-1-yl)phenyl)-1H-pyrazolo[3,4-b]pyridin-3-yl)-2-methylphenyl)ethyl)-1,2,4-oxadiazole-3-carboxamide]
3.95 nM		Cc1cc(-c2n[nH]c3ncc(-c4ccc(N5CCN(CCCOc6ccc(C7CCC(=O)NC7=O)c(F)c6)CC5)cc4)cc23)ccc1[C@@H](C)NC(=O)c1noc(C(C)(C)C)n1 (stereo partly drawn) [Example 86, 5-(tert-butyl)-N-((1R)-1-(4-(5-(4-(4-(3-(4-(2,6-dioxopiperidin-3-yl)-3-fluorophenoxy)propyl)piperazin-1-yl)phenyl)-1H-pyrazolo[3,4-b]pyridin-3-yl)-2-methylphenyl)ethyl)-1,2,4-oxadiazole-3-carboxamide]
1.56 nM		Cc1cc(-c2n[nH]c3ncc(-c4ccc(N5CCN(CCc6ccc([C@@H]7CCC(=O)NC7=O)c(F)c6)CC5)cc4)cc23)ccc1[C@@H](C)NC(=O)c1noc(C(C)(C)C)n1 [Example 114, 5-(tert-butyl)-N—((R)-1-(4-(5-(4-(4-(4-((S)-2,6-dioxopiperidin-3-yl)-3-fluorophenethyl)piperazin-1-yl)phenyl)-1H-pyrazolo[3,4-b]pyridin-3-yl)-2-methylphenyl)ethyl)-1,2,4-oxadiazole-3-carboxamide]
6.11 nM		Cc1cc(N2CCC(CN3CCN(c4ccc(-c5cnc6[nH]nc(-c7cc(CO)c([C@@H](C)NC(=O)c8nc(C(C)(C)C)no8)cc7F)c6c5)cc4)CC3)CC2)ccc1N1CCC(=O)NC1=O [Example 190, (R)-3-(tert-butyl)-N-(1-(4-(5-(4-(4-((1-(4-(2,4-dioxotetrahydropyrimidin-1(2H)-yl)-3-methylphenyl)piperidin-4-yl)methyl)piperazin-1-yl)phenyl)-1H-pyrazolo[3,4-b]pyridin-3-yl)-5-fluoro-2-(hydroxymethyl)phenyl)ethyl)-1,2,4-oxadiazole-5-carboxamide]
0.714 nM	97.1%	Cc1cc(-c2n[nH]c3ncc(-c4ccc(C5CCN(CCc6ccc(C7CCC(=O)NC7=O)cc6)CC5)cc4)cc23)ccc1CNC(=O)c1noc(C(C)(C)C)n1 (centres unmarked) [Example 3, 5-(tert-butyl)-N-(4-(5-(4-(1-(4-(2,6-dioxopiperidin-3-yl)phenethyl)piperidin-4-yl)phenyl)-1H-pyrazolo[3,4-b]pyridin-3-yl)-2-methylbenzyl)-1,2,4-oxadiazole-3-carboxamide]
1.12 nM		Cc1c(CNC(=O)c2noc(C(C)(C)C)n2)ccc(-c2n[nH]c3ncc(-c4ccc(C5CCN(CC6CCN(c7ccc(N8CCC(=O)NC8=O)cc7)CC6)CC5)cc4)cc23)c1F [Example 221, 5-(tert-butyl)-N-(4-(5-(4-(1-((1-(4-(2,4-dioxotetrahydropyrimidin-1(2H)-yl)phenyl)piperidin-4-yl)methyl)piperidin-4-yl)phenyl)-1H-pyrazolo[3,4-b]pyridin-3-yl)-3-fluoro-2-methylbenzyl)-1,2,4-oxadiazole-3-carboxamide]

— patent publication US20230322761A1, “DEGRADATION OF BRUTON'S TYROSINE KINASE (BTK) BY CONJUGATION OF BTK INHIBITORS WITH E3 LIGASE LIGAND AND METHODS OF USE” (BEIGENE, LTD., priority 2020, published 2023)
